Results published in patent US20160025753A1, “ASSAY FOR CANNABINOIDS AND METHODS OF USE THEREOF” (priority 2014, published 2016).
Where “and” joins values, the source holds several entries; their conditions need not be identical. Identical values can stand only once. Like-named read-outs stand apart in the source and are kept apart here.

Columns and labels:
[1] = target: T1, human cannabinoid receptor 1 membrane preparation (Homo sapiens, UniProt P21554); assay type: binding
T1 construct: purchased EMD Millipore
T1 sequence (P21554 whole entry): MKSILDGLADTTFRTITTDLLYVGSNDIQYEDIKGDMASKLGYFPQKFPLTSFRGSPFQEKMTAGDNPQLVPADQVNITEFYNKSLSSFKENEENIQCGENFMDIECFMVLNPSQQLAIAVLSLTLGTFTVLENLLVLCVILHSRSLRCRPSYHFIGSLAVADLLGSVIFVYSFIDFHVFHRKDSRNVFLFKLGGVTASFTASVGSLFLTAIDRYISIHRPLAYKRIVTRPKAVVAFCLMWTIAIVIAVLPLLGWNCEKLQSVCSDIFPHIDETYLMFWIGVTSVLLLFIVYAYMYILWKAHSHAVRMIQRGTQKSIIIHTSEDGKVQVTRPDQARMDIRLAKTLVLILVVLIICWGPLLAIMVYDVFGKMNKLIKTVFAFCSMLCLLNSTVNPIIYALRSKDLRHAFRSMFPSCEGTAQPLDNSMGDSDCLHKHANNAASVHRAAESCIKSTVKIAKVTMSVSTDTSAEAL

[2] = target: T2, CB1 human recombinant protein (Homo sapiens, UniProt P21554); assay type: binding; parameters: purchased Abnova
T2 sequence (P21554 whole entry): as above

[3] = target: T2, CB1 human recombinant protein; test: Heterogeneous competitive plate assay, Δ9-THC conjugate coated 96-well plate, anti-CB1 antibody/HRP detection (Example 3)
CB2 receptors = CB2 receptors (Homo sapiens, UniProt P34972); conditions: background statement; cited from earlier work
Sequence of CB2 receptors (P34972 whole entry): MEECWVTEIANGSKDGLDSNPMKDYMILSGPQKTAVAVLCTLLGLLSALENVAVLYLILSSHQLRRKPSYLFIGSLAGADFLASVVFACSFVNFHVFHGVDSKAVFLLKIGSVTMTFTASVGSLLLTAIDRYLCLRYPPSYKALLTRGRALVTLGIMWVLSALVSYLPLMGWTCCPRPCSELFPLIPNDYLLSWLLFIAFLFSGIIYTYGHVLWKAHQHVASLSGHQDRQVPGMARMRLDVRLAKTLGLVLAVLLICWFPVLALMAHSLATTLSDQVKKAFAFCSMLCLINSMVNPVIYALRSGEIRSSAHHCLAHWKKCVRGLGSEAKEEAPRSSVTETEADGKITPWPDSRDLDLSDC

Compound: CCCCCn1cc(C(=O)c2cccc3ccccc23)c2ccccc21 [JWH-018]
- Detection by the assay (in words) [1]: comparable response
- Relative Fluorescent Units (RFU) [1]: 22,299 RFU
- Signal inhibition (relative absorbance at 450 nm) [2]: demonstrated signal inhibition

Compound: CCCCCCC(C)(C)c1cc(O)c2c(c1)OC(C)(C)[C@@H]1CC=C(CO)C[C@@H]21 [HU-210]
- Detection by the assay (in words) [1]: comparable response
- Relative Fluorescent Units (RFU) [1]: 21,014 RFU
- Inhibition of absorbance at 450 nm (in words) ([3]; sample containing 100 ng/ml): significant inhibition of absorbance
- Average Absorbance @ 450 nm ([3]; with 100 ng/mL HU-210, average of 6 replicates, no cannabinoid blank 2.279): 1.480
- Absorbance @ 450 nm ([3]; with 100 ng/mL HU-210, single replicates, no cannabinoid blank average 2.279): 1.435 and 1.480 and 1.416 and 1.602 and 1.379 and 1.569

Compound: C=C(C)[C@@H]1CCC(C)=C[C@H]1c1c(O)cc(CCCCC)cc1O [cannabidiol, Cannabidiol]
- Affinity for CB2 receptors (CB2 receptors): low affinity

Compound: CCCCCCCC(C)(C)c1ccc([C@H]2CCC[C@@H](O)C2)c(O)c1 [Cannabicyclohexanol]
- Relative Fluorescent Units (RFU) ([1]; 1 μg/mL sample, excitation 535 nm, emission 610 nm, no cannabinoids 47,934): 20,667 RFU
- Detection by the assay (in words) ([1]; 1 μg/mL solution of each): comparable response

Compound: CCCCCn1cc(C(=O)c2cccc3ccccc23)c2cc(O)ccc21 [JWH-018 5-hydroxyindole metabolite]
- Signal inhibition (relative absorbance at 450 nm) ([2]; 100 ng/mL test sample, FIG. 8): showed less signal inhibition
